Some test systems named below: SR leukemia; CCRF-CEM leukemia; IGROV1 ovarian; NCI/ADR-RES ovarian; NCI-H522 lung; COLO 205 colon; DU-145 prostate; SK-MEL-5 melanoma; A549 NSCLC; HCT-15 colon.
Common to all, as to experiment: inhibition of tumour cell growth, NCI panel, 48 h

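Each compound was tested at five concentrations against cells in 96-well plates for 48 hours. Here, GI50 denotes the concentration required for 50% inhibition of growth. TGI marks complete inhibition of growth.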

`CS(=O)(=O)N1CCN(Cc2cc3nc(-c4cccc5[nH]ncc45)nc(N4CCOCC4)c3s2)CC1` (tested in a mixture with another compound): the GI50 is 0.194 µM in the experiment on SR leukemia; 0.272 µM in the experiment on CCRF-CEM leukemia; 0.0324 µM with IGROV1 ovarian; 0.284 µM in the experiment with NCI/ADR-RES ovarian; 0.375 µM in the experiment on NCI-H522 lung; 0.182 µM in the experiment with COLO 205 colon. In addition, the GI50 is 0.0837 µM in the experiment on DU-145 prostate, 0.201 µM with SK-MEL-5 melanoma, 0.0213 µM in the experiment with A549 NSCLC and 0.207 µM in the experiment on HCT-15 colon. For the same compound, the TGI with IGROV1 ovarian was 0.188 µM; in the experiment on NCI-H522 lung, 13 µM; in the experiment with COLO 205 colon it was 0.649 µM; in the experiment on SK-MEL-5 melanoma it was 0.638 µM; with A549 NSCLC it was 0.0487 µM; with HCT-15 colon, greater than 100 µM.

For the compound `COc1ncc(-c2nc3c(n2C(C)C)[C@H](c2ccc(Cl)cc2)N(c2cc(Cl)cn(C)c2=O)C3=O)c(OC)n1`, the GI50 was 6.14 µM in the experiment on SR leukemia; 30.9 µM with CCRF-CEM leukemia; 22.1 µM with IGROV1 ovarian; 44 µM in the experiment on NCI/ADR-RES ovarian; 69.2 µM in the experiment with NCI-H522 lung; 36.9 µM with COLO 205 colon. In addition, the GI50 is 94.8 µM with DU-145 prostate, 11.7 µM with SK-MEL-5 melanoma, 17.9 µM with A549 NSCLC and 34.5 µM in the experiment with HCT-15 colon. Also, the TGI was 77.1 µM in the experiment with SR leukemia; greater than 100 µM in the experiment on CCRF-CEM leukemia; greater than 100 µM in the experiment on IGROV1 ovarian; greater than 100 µM in the experiment with NCI/ADR-RES ovarian; greater than 100 µM in the experiment with NCI-H522 lung; greater than 100 µM with COLO 205 colon. In addition, the TGI in the experiment with DU-145 prostate was greater than 100 µM; with SK-MEL-5 melanoma it was 24.1 µM; with A549 NSCLC it was greater than 100 µM; in the experiment on HCT-15 colon it was greater than 100 µM.

With `COc1cc2cc(Oc3ccc(NC(=O)Nc4ccccc4)cc3)c(C)nc2cc1OCCN1CCCCC1`, the GI50 in the experiment with SR leukemia is 0.934 µM; in the experiment with CCRF-CEM leukemia it was 1.05 µM; in the experiment on IGROV1 ovarian, 5.68 µM; in the experiment on NCI/ADR-RES ovarian, 6.54 µM; in the experiment on NCI-H522 lung, 6.22 µM; in the experiment on COLO 205 colon, 6.25 µM. Moreover, the GI50 with DU-145 prostate was 5.92 µM; in the experiment with SK-MEL-5 melanoma, 5.47 µM; with A549 NSCLC it was 7.26 µM; with HCT-15 colon, 4.18 µM. The TGI amounted to 2.66 µM in the experiment with SR leukemia; 4.29 µM in the experiment with CCRF-CEM leukemia; 11 µM with IGROV1 ovarian; 14.5 µM in the experiment on NCI/ADR-RES ovarian; 13 µM with NCI-H522 lung; 13.1 µM with COLO 205 colon. Moreover, the TGI stood at 11.4 µM in the experiment on DU-145 prostate, 10.1 µM in the experiment with SK-MEL-5 melanoma, 18.6 µM in the experiment on A549 NSCLC and 9.14 µM with HCT-15 colon.

Take `Nc1nc2c(c3ncccc13)C(c1cccc(Cl)c1)Cc1ncccc1-2` (stereo unspecified): the GI50 in the experiment on SR leukemia was 0.469 µM; with CCRF-CEM leukemia, 2.12 µM; with IGROV1 ovarian it was 5.36 µM; with NCI/ADR-RES ovarian, 0.959 µM; with NCI-H522 lung, 0.417 µM; in the experiment on COLO 205 colon it was 1.53 µM. Also, the GI50 with DU-145 prostate is 2.77 µM; with SK-MEL-5 melanoma, 1.34 µM; in the experiment with A549 NSCLC, 3.08 µM; with HCT-15 colon, 1.22 µM. The TGI was 14.3 µM with SR leukemia; 48.6 µM in the experiment with CCRF-CEM leukemia; greater than 100 µM in the experiment with IGROV1 ovarian; 7.5 µM in the experiment on NCI/ADR-RES ovarian; 2.82 µM with NCI-H522 lung; 3.94 µM in the experiment with COLO 205 colon. The TGI in the experiment on DU-145 prostate is 24.9 µM; in the experiment on SK-MEL-5 melanoma, 14.7 µM; with A549 NSCLC it was greater than 100 µM; in the experiment on HCT-15 colon, 20.6 µM.

Turning to `C(CCc1nnc2c(n1)CCCC2)Cc1nnc2c(n1)CCCC2`, the TGI with SR leukemia, in the experiment on CCRF-CEM leukemia, in the experiment with IGROV1 ovarian, in the experiment on NCI/ADR-RES ovarian, with NCI-H522 lung and in the experiment with COLO 205 colon was greater than 100 µM in each case. The TGI in the experiment with DU-145 prostate, in the experiment with SK-MEL-5 melanoma, in the experiment with A549 NSCLC and in the experiment on HCT-15 colon was greater than 100 µM in each case.

`CC[N+](CC)=c1ccc2nc3c(cc(NCc4ccccc4)c4ccccc43)oc-2c1`: the GI50 in the experiment with SR leukemia is 0.27 µM; in the experiment with CCRF-CEM leukemia it was 0.476 µM; in the experiment on IGROV1 ovarian it was 0.258 µM; in the experiment on NCI/ADR-RES ovarian, 0.227 µM; with NCI-H522 lung it was 0.149 µM; in the experiment with COLO 205 colon, 0.153 µM. Moreover, the GI50 in the experiment with DU-145 prostate was 0.155 µM; in the experiment with SK-MEL-5 melanoma, 0.147 µM; in the experiment with A549 NSCLC it was 0.215 µM; with HCT-15 colon it was 0.378 µM. In addition, the TGI was found to be 0.999 µM in the experiment on SR leukemia; 7.15 µM with CCRF-CEM leukemia; 1.67 µM in the experiment with IGROV1 ovarian; 1.76 µM in the experiment with NCI/ADR-RES ovarian; 0.567 µM in the experiment with NCI-H522 lung; 0.311 µM with COLO 205 colon. Moreover, the TGI worked out at 0.291 µM with DU-145 prostate, 0.28 µM with SK-MEL-5 melanoma, 0.56 µM with A549 NSCLC and 2.29 µM in the experiment on HCT-15 colon.

As for `COc1cc(NN=C(c2ccc(O)cc2)c2ccc(O)cc2)c([N+](=O)[O-])cc1[N+](=O)[O-]`, the GI50 was 10.9 µM with SR leukemia; 1.37 µM in the experiment with CCRF-CEM leukemia; 12.7 µM in the experiment with IGROV1 ovarian; 13.1 µM in the experiment on NCI/ADR-RES ovarian; 8.86 µM with NCI-H522 lung; 11.2 µM in the experiment with COLO 205 colon. Further, the GI50 is 12.8 µM in the experiment on DU-145 prostate, 6.24 µM with SK-MEL-5 melanoma, 7.59 µM with A549 NSCLC and 5.75 µM in the experiment on HCT-15 colon. For the same compound, the TGI in the experiment on SR leukemia was greater than 100 µM; in the experiment with CCRF-CEM leukemia, greater than 100 µM; with IGROV1 ovarian, 32.8 µM; with NCI/ADR-RES ovarian, 51.5 µM; with NCI-H522 lung it was 29.9 µM; with COLO 205 colon, 23.2 µM. For the same compound, the TGI in the experiment on DU-145 prostate is 50.8 µM; with SK-MEL-5 melanoma, 20.6 µM; in the experiment on A549 NSCLC it was 33.7 µM; in the experiment with HCT-15 colon, 20.1 µM.
